Data as given in paper PMC12591484 (PLOS One, 2025).

Assays:
Parameters in all cases: key: +: Mutant-function studies are deemed positive when bulky mutations (mostly tryptophans) at the site significantly reduce positive modulation by anesthetics; -: Negative results are indicated by “–“ symbols
[1] = system: α1β3γ2L GABAA receptors, bulky mutation at α1M236; settings: cited from earlier work
[2] = system: α1β3γ2L GABAA receptors, bulky mutation at β3L231; settings: cited from earlier work
[3] = system: α1β3γ2L GABAA receptors, bulky mutation at α1L232; settings: cited from earlier work
[4] = system: α1β3γ2L GABAA receptors, bulky mutation at γ2L246; settings: cited from earlier work
[5] = biological target: T1, α1β3γ2S301C GABAA receptors (Homo sapiens, UniProt P14867+P18507+P28472, S340C); assay: Drug protection from pCMBS modification (SCAMP); type: cell-based; settings: results of this study (*)
T1 construct: expressed in transfected cells; host or cells: Xenopus oocytes injected with capped mRNAs mixed 1α:1β:5γ
T1 sequence (P14867 28-456): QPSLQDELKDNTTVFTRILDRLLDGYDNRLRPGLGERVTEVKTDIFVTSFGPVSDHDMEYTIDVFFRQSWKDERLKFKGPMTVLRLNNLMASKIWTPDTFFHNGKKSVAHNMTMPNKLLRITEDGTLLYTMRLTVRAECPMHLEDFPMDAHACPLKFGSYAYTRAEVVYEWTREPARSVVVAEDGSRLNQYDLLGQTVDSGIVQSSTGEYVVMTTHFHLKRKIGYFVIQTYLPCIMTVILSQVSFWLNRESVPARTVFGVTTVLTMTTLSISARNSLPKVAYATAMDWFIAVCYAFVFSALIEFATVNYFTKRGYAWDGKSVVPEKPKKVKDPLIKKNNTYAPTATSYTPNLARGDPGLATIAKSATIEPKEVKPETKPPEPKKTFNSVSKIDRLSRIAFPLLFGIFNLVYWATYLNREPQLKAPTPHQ
T1 sequence (P28472 26-473): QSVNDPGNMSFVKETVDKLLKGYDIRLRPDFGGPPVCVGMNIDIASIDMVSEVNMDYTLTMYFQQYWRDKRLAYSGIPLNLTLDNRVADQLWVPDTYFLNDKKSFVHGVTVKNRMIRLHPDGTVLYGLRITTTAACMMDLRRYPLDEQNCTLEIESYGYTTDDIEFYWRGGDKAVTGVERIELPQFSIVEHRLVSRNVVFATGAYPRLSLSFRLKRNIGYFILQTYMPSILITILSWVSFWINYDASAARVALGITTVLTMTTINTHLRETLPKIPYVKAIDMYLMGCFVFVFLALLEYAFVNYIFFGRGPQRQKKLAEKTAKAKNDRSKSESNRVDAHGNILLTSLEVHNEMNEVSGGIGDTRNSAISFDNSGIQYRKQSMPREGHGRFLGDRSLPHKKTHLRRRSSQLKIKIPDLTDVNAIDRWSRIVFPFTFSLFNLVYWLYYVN
T1 sequence (P18507 40-475 S340C): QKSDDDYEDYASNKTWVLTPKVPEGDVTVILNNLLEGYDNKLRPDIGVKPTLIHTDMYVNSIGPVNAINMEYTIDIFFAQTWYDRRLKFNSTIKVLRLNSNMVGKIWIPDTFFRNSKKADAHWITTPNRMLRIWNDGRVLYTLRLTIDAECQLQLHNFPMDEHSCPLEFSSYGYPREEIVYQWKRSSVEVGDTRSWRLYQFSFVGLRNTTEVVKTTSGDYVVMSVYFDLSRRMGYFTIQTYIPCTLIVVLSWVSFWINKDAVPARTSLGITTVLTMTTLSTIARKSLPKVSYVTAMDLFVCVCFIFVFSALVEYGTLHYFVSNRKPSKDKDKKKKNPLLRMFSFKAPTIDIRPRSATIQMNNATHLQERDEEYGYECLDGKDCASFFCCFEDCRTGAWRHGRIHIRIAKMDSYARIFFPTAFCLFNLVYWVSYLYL
Protocol: Experiments were performed in ND-96 buffer at room temperature (20–22°C). Oocytes were placed in a low-volume (30µl) flow chamber and impaled with borosilicate microelectrodes filled with 3M KCl (resistance 0.5–3 MΩ) and voltage-clamped at −50 mV (model OC-725C; Warner Instruments, Hamden, CT, USA). Superfusate solutions in ND-96 were delivered at 2 ml/min from glass syringe reservoirs via computer-controlled valves (VC-8; Warner Instruments), a micro-manifold (ALA-VM8; ALA Scientific Instruments, Farmingdale, NY, USA), and PTFE tubing. Currents were digitized at 200 Hz on a computer running ClampEx v8.0 software (Molecular Devices, San Jose, CA, USA). Digitized traces were filtered with a 10-Hz low-pass Bessel function, leak corrected and analyzed for peak amplitude off-line using Clampfit v8 software (Molecular Devices).
Drug protection from pCMBS modification was assessed under pCMBS exposure conditions that produced approximately half of the maximal modification ratio for each mutant receptor, and a least a value of 3. This approach balanced the magnitude of functional modification signals (smaller with less pCMBS exposure) against the challenge of using a reversibly bound ligand to competitively block an irreversible covalent cysteine-modifying reaction. […] Each oocyte was used in a single SCAMP experiment. […] Etomidate was used as a positive control for anesthetic protection in α1M236C and β3M286C mutants and as a negative control in α1S270C, α1A291C, β3L231C, γ2S301C, γ2I242C, and γ2L246C mutants. R-mTFD-MPAB was used as a positive control in α1S270C, α1A291C, β3L231C, and γ2LS301C mutants and as a negative control in α1M236C and β3M286C mutants. For each cysteine mutant and protective drug combination, five oocytes were studied.
Non-linear least squares fits and statistical analyses were performed in Prism 10.4.0. (GraphPad Software, San Diego, CA, USA). […] Protection (steric inhibition of pCMBS modification) was inferred when anesthetics produced significant reductions in modification ratios relative to control (no anesthetic) values. The statistical significance threshold was p < 0.05.

| SMILES | Mutant-function result, α1– (M1) M236 [1] | Mutant-function result, β3– (M1) L231 [2] | Mutant-function result, α1– (M1) L232 [3] | Mutant-function result, γ2– (M1) L246 [4] | SCAMP result, γ2+ (M2, M3) S301 [5] |
| --- | --- | --- | --- | --- | --- |
| C=CCC1(c2cccc(C3(C(F)(F)F)N=N3)c2)C(=O)NC(=O)N(C)C1=O (stereo not shown) [R-mTFD-MPAB, R-5-allyl-1-methyl-5-(m-trifluoromethyl-diazirynylphenyl) barbituric acid] | -^[9] | -^[9] | -^[9] | -^[9] |  |
| CCOC(=O)c1cncn1[C@H](C)c1ccccc1 [etomidate, R-etomidate] | +^[9], [12] | +^[9] | +^[9, 12] | -^[9] | -* |
| CC(C)c1cc(C2(C(F)(F)F)N=N2)cc(C(C)C)c1CO [pTFD-di-iPr-BnOH] |  |  |  |  | -* |
